Measured values reported in patent US8609413B2, “Neurons, astrocytes and oligodendrocytes differentiated from a mammalian pluripotent or neural stem cells exposed to a pyridine deriviative” (Research Development Foundation, priority 2007, dated 2013).

Key:
human ES cells = assay: TWS119 tested by the inventors on human ES cells; assay type: cell-based
mouse ES cells = conditions: literature reports; cited from earlier work
[1] = tested on: human ESC-derived NPC / ESC aggregates; assay: Air/liquid interface three-dimensional culture with added factors; assay type: cell-based; conditions: exogenously added factor
Text: Air/liquid interface expansion/differentiation of NPC may be performed via the following protocol. One or more rosettes-enriched clusters may be manually removed and multiple clusters (e.g., about 5-10 clusters) may be plated on a hydrophilic polytetrafluoroethylene (PTFE) membrane (e.g., 6 mm diameter, 0.4 μm, BioCell-Interface, La Chaux-de-Fonds, Switzerland). This membrane may be deposited on a Millicell®-CM (0.4 μm) Culture Plate Insert (Millipore) (FIG. 5A). N2 medium may preferably be added (e.g., about 1 ml) underneath the membrane insert.
Air/liquid interface expansion/differentiation of NPC. Rosettes-enriched cluster were manually removed and 5-10 clusters were plated on a hydrophilic polytetrafluoroethylene (PTFE) membrane (6 mm diameter, 0.4 μm, BioCell-Interface, La Chaux-de-Fonds, Switzerland). This membrane was deposited on a Millicell®-CM (0.4 μm) Culture Plate Insert (Millipore) (FIG. 1). One ml of N2 medium was added underneath the membrane insert.

Compound	cell growth (human ES cells)	neuronal differentiation (human ES cells)	neuronal differentiation of mouse ES cells (mouse ES cells)	phenotype of engineered tissue [1]	size of engineered tissue [1]
Nc1cccc(-c2cc3c(Oc4cccc(O)c4)ncnc3[nH]2)c1 [TWS119]	decreased cell growth	only small effect on neuronal differentiation	enhanced neuronal differentiation of mouse ES cells	–	–
FGF-2: basic fibroblast growth factor, exogenously added growth factor	–	–	–	did not induce phenotypic changes	moderate increase
EGF: epidermal growth factor	–	–	–	did not induce phenotypic changes	moderate increase
Cc1cccc(C#Cc2ccccc2)n1 [MPEP, 2-methyl-6-(phenylethynyl)-pyridine]	–	–	enhances their differentiation towards neurons	–	–
